The source made the active and inactive calls.
Key:
[1] = target: T1, Oxysterols receptor LXR-beta (Homo sapiens, UniProt P55055); assay type: functional, cell-based;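 note: Cell-based luminescence dose-response assay of agonist activity at LXR, run as a confirmatory counterscreen to a daf-12 agonist screen; agonist potency from rising luciferase signal of a Gal4-LXR reporter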
T1 sequence (P55055 whole entry): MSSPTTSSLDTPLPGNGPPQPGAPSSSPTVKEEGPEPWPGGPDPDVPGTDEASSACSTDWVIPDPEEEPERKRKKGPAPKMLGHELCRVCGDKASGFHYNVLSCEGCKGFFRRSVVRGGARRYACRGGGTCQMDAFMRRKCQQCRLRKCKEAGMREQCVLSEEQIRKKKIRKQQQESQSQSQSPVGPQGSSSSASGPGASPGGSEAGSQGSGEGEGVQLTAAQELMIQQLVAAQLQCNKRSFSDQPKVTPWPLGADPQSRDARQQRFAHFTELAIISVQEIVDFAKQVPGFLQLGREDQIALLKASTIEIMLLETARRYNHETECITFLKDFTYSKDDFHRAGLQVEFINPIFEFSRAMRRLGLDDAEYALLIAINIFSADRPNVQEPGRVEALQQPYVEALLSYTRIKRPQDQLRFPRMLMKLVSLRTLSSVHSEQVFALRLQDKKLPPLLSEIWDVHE

[2] = target: T2, Methionyl-tRNA synthetase, putative (Trypanosoma brucei brucei, UniProt Q38C91); assay type: functional, Trypanosoma brucei brucei strain 927/4 GUTat10.1
T2 sequence (Q38C91 whole entry): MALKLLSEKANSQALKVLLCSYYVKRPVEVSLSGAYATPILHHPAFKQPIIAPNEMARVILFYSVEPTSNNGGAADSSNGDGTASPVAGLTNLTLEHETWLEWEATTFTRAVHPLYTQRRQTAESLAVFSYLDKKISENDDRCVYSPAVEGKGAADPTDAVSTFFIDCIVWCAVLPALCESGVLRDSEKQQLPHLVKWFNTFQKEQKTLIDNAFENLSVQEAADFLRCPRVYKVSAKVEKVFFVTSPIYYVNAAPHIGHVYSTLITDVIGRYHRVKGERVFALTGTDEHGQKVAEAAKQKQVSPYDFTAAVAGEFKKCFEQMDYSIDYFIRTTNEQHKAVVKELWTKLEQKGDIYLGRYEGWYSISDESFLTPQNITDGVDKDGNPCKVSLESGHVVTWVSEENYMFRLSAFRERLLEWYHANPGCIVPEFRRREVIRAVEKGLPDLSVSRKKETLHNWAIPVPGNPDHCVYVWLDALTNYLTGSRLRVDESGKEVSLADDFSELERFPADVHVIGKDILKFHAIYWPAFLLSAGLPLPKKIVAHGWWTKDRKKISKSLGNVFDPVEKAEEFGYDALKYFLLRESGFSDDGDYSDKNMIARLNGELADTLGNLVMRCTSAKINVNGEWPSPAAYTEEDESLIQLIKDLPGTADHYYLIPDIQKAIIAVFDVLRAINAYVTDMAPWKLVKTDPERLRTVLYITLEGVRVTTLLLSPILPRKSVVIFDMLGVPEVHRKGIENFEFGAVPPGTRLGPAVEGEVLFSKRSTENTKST

[3] = test system: Streptococcus sp. 'group A'; experiment: Streptococcus pyogenes SK(-)GAS viability under kanamycin – luminescence, BacTiterGlo, confirmation, counter-screen for streptokinase expression inhibitor project, dose response (AID 1900); assay type: functional, organism-based
[4] = target: T2, Methionyl-tRNA synthetase, putative; assay type: functional, Trypanosoma brucei brucei strain 927/4 GUTat10.1; remark: listed apart in the source
[5] = M. tuberculosis H37Rv growth inhibitors, H37Rv strain (AID 1626); assay type: functional
Streptokinase A = target: T3, Streptokinase A (Streptococcus pyogenes serotype M1, UniProt P10520); experiment: viability-normalized secreted streptokinase activity reduction – plasminogen activation absorbance, OD405, dose response (AID 1914); assay type: functional, Streptococcus pyogenes M1 GAS;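 note: secreted streptokinase activity via plasminogen activation per viability signal from cell pellet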
T3 sequence (P10520 whole entry): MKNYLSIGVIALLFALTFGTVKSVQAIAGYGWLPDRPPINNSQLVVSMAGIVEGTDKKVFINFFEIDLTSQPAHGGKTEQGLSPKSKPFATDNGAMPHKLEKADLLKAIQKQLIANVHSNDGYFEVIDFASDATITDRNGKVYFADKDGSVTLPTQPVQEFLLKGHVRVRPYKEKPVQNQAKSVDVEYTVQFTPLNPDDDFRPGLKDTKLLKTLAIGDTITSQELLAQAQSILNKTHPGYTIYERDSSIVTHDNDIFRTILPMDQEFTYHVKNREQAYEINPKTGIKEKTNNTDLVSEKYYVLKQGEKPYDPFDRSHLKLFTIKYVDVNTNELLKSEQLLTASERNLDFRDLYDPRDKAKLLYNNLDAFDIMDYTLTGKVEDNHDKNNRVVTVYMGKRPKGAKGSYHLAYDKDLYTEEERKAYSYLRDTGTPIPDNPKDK

[6] = Counterscreen for inhibitors of Trypanosoma brucei methionyl tRNA synthetase (MetRS): Luminescence-based cell-based high throughput dose response assay to identify compounds that are cytotoxic to Jurkat human T lymphocyte cells.; assay type: functional
Streptococcus = experiment: GAS UMAA2166 growth inhibition – luminescence, BacTiterGlo, counter-screen for streptokinase expression inhibitor project, dose response (AID 1915); assay type: functional, organism-based;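 note: potency for reduction of bacterial viability or growth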
[7] = OVCAR8 cell viability loss – plate reader, dry powder samples, PAX8 project, dose response (AID 743197); assay type: functional, cell-based; conditions: OVCAR-8
Paired box protein Pax-8 = Paired box protein Pax-8 (Homo sapiens, UniProt Q06710); experiment: PAX8 transcriptional activity inhibition in RMG-I – RMG-I cells, luciferase, cherry-pick, dose response (AID 687027); assay type: functional, cell-based;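 note: luciferase reporter driven by Pax8 target thyroperoxidase promoter measured by SteadyGlo luminescence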
Chain of Paired box protein Pax-8 (Q06710 whole entry): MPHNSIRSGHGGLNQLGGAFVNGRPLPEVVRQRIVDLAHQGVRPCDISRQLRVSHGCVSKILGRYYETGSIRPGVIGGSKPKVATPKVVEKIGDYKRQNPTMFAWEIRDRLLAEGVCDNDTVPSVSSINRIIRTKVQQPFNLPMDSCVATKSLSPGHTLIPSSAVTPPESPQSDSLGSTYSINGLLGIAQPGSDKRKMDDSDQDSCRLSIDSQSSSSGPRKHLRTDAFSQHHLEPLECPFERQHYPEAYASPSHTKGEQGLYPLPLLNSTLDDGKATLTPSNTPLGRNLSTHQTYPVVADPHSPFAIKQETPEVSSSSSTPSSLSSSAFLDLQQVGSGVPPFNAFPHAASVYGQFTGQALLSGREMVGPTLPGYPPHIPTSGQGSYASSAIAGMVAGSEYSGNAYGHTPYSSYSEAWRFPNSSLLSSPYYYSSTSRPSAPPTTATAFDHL

[8] = A549 cell cytotoxicity, dose response, cytotoxicity control, plate reader, cherry-pick, antagonist series (AID 743412); assay type: functional, cell-based
[9] = blockers of bursicon-stimulated LGR2 cAMP reporter – cell-based, HEK293, CRE-luciferase reporter, cherry pick, set 2, dose response (AID 743343); assay type: functional;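 note: transfected cells were stimulated with diluted bursicon conditioned medium after compound addition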
[10] = viability loss in HEK293 cells – cell-based, plate reader, cherry-picked samples, cytotoxicity control, dose response (AID 743446); assay type: functional
[11] = blockade of melanocortin 4 receptor signaling – cell-based, plate reader, cherry pick, counter-screen for LGR2 antagonist project, dose response (AID 743444); assay type: functional;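 note: transfected HEK 293 cells stimulated with alpha-MSH peptide; potency of inhibitors of the alpha-MSH evoked signal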
[12] = target: T4, Rac GTPase-activating protein 1 (Homo sapiens, UniProt Q9H0H5); experiment: blockers of MgcRacGAP-driven Rac1 GTP hydrolysis – biochemical, ADP Hunter fluorescence, primary and confirmatory, confirmation (AID 624330); assay type: functional
T4 sequence (Q9H0H5 whole entry): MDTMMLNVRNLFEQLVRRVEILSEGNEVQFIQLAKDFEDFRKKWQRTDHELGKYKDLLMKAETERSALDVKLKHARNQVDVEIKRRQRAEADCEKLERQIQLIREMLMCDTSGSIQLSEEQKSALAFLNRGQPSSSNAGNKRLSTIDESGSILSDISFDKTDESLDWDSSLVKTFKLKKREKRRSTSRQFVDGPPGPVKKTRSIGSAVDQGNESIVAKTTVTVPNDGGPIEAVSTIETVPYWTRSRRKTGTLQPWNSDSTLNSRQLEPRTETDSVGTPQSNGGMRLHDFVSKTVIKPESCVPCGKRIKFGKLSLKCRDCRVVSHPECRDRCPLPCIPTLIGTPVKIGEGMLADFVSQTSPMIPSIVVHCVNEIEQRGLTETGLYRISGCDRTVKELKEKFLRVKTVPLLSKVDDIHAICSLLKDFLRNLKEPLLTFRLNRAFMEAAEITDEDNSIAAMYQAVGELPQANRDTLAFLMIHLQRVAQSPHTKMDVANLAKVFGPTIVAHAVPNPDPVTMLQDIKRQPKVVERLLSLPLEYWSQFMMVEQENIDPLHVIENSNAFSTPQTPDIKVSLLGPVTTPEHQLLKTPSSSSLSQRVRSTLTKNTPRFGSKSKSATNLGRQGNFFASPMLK

[13] = viability loss in HeLa cells – cytotoxicity control for MgcRacGAP inhibitor project, dose response (AID 624300); assay type: functional
[14] = NIH-3T3 fibroblast cytotoxicity, dose response, cytotoxicity control, cell-based, fluorescence, Alamar Blue, secondary assay (AID 2327); assay type: functional;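 note: NIH-3T3 mouse fibroblasts cultured with fluconazole at 8 µg/mL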
[15] = target: T1, Oxysterols receptor LXR-beta; experiment: LXR agonists, Gal4 luciferase reporter, dose response, counter-screen for ssDAF-12 agonist project, cell-based, luminescence, HEK293, S. stercoralis campaign (AID 720737); assay type: functional; conditions: read-out: IC50 (the source's name)
[16] = fluconazole-exposed Candida albicans growth modulators – fluorescence, retest, confirmation (AID 2467); assay type: functional, cell-based
[17] = Luminescence-based cell-based high throughput dose response assay to identify activators of the DAF-12 from the parasite S. stercoralis (ssDAF-12).; assay type: functional
[18] = toxicity toward HepG2 liver cells – cell-based, plate reader, cherry-pick, antagonist series, cytotoxicity control, dose response (AID 743416); assay type: functional

Question: For `Cc1sc(NC(=O)c2ccc(Cl)s2)c(C(N)=O)c1C`, which EC50 [1] is on record?
Answer: > 67.5 µM (inactive)

Question: And the EC50 (cells)?
Answer: > 67.5 µM (inactive)

Question: With `Cc1ccsc1C(=O)OCc1csc(-c2ccccc2)n1` as the molecule, how does the EC50 [1] read?
Answer: > 67.5 µM (inactive)

Question: What about the EC50 (cells) of the same molecule?
Answer: > 67.5 µM (inactive)

Question: What does the source list for `COc1ccc(-c2nnc(SC(C(=O)c3c[nH]c4ccccc34)c3ccccc3)n2N)cc1OC` (stereo not drawn)?
Answer: IC50 [2]: 99 µM (inactive); EC50 [3]: 8.65 µM (active); IC50 [4]: 33.8 µM (inactive); IC50 [5]: > 100 µM (active); EC50 (Streptokinase A): > 150 µM (not active); IC50 [6]: 83.3 µM (inactive); EC50 (Streptococcus): 102 µM (active)

Question: What does the source list for `Cc1cccc(-c2ccc([C@H]3[C@@H](CO)N4CCCCN(S(=O)(=O)c5cccc(C)c5)C[C@@H]34)cc2)c1`?
Answer: AC50 [7]: > 70 µM (inactive); AC50 (Paired box protein Pax-8): 8.23 µM (active)

Question: Which AC50 [8] does the source give for `Cc1cccc(-c2ccc([C@H]3[C@@H](CO)N4CCCCN(C(=O)c5ccc6c(c5)OCO6)C[C@@H]34)cc2)c1` here?
Answer: 26.4 µM (active)

Question: And the AC50 [9]?
Answer: 14.2 µM (active)

Question: And the AC50 [10]?
Answer: 15.6 µM (active)

Question: What about the AC50 [11] of the same molecule?
Answer: 15.4 µM (active)

Question: For `Oc1ccc(/C=N/Nc2nn3cnnc3c3ccccc23)cc1`, which IC50 [12] is on record?
Answer: 22.2 µM (active)

Question: And the CC50 [13]?
Answer: 100 µM (active)

Question: What does the source list for `Cc1cccc(NC(S)=NNC(=O)c2cc3c(s2)CCC(C)C3)c1C` (stereo not drawn)?
Answer: EC50 [14]: > 150 µM (inactive); EC50 [15]: > 67.5 µM (inactive); EC50 [16]: > 38 µM (not active); IC50 [17]: > 67.5 µM (inactive)

Question: With `Cc1cccc(-c2noc(-c3ccc4c(c3)OCO4)n2)c1` as the molecule, how does the AC50 [8] read?
Answer: > 52 µM (inactive)

Question: And the AC50 [9]?
Answer: 9.54 µM (active)

Question: And the AC50 [10]?
Answer: > 52 µM (inactive)

Question: What about the AC50 [11] of the same molecule?
Answer: 12.1 µM (active)

Question: What about the AC50 [18] of the same molecule?
Answer: > 52 µM (inactive)
